The NIST ThermoML archive (doi:10.1016/j.jct.2011.10.001)
± gives the expanded uncertainty stated by the source.

Assay: molar heat capacity at constant pressure
Conditions: 101.33 kPa, Liquid, Vacuum adiabatic calorimetry

CCCC(=O)OC [methyl butanoate]
Conditions | molar heat capacity at constant pressure [J/K/mol]
258.06 K | 191.41 ± 0.39
259.91 K | 191.46 ± 0.39
260 K | 191.68 ± 0.39
261.76 K | 191.67 ± 0.39
263.49 K | 192.11 ± 0.39
265.34 K | 192.17 ± 0.39
267.17 K | 192.77 ± 0.39
269.01 K | 193.06 ± 0.39
270 K | 193.16 ± 0.39
270.85 K | 193.64 ± 0.39
272.68 K | 194.01 ± 0.39
274.5 K | 193.7 ± 0.39
276.33 K | 194.03 ± 0.39
278.16 K | 194.27 ± 0.39
279.98 K | 194.58 ± 0.39
280 K | 194.68 ± 0.4
281.79 K | 195.04 ± 0.4
283.59 K | 195.25 ± 0.4
285.4 K | 195.54 ± 0.4
287.19 K | 195.76 ± 0.4
288.98 K | 196.51 ± 0.4
290 K | 196.51 ± 0.4
290.74 K | 196.84 ± 0.4
292.33 K | 196.73 ± 0.4
294.09 K | 197.27 ± 0.4
295.83 K | 197.8 ± 0.4
297.59 K | 198 ± 0.4
298.15 K | 198.08 ± 0.4
299.34 K | 198.43 ± 0.4
300 K | 198.44 ± 0.4
301.06 K | 198.72 ± 0.4
302.76 K | 198.98 ± 0.4
304.45 K | 199.24 ± 0.4
306.14 K | 199.38 ± 0.4
307.81 K | 199.85 ± 0.4
309.48 K | 200.31 ± 0.4
310 K | 200.39 ± 0.4
311.13 K | 200.58 ± 0.4
312.78 K | 200.66 ± 0.4
314.42 K | 201.21 ± 0.4
316.05 K | 201.68 ± 0.4
317.67 K | 201.91 ± 0.4
318.97 K | 202.28 ± 0.4
320 K | 202.43 ± 0.4
320.57 K | 202.72 ± 0.4
322.17 K | 203.14 ± 0.4
323.75 K | 203.27 ± 0.4
325.32 K | 203.68 ± 0.4
326.89 K | 204.18 ± 0.4
328.44 K | 204.41 ± 0.4
329.98 K | 204.65 ± 0.4
330 K | 204.68 ± 0.41
331.51 K | 204.84 ± 0.4
333.03 K | 205.34 ± 0.41
334.54 K | 205.78 ± 0.41
336.04 K | 206.3 ± 0.41
337.49 K | 206.62 ± 0.41
338.96 K | 206.61 ± 0.41
340 K | 207.21 ± 0.41
340.42 K | 207.11 ± 0.41
341.87 K | 207.49 ± 0.41
342.87 K | 207.85 ± 0.41
344.3 K | 208.38 ± 0.41
345.71 K | 208.82 ± 0.41
347.12 K | 209.31 ± 0.41
348.51 K | 209.73 ± 0.41
349.89 K | 209.95 ± 0.41
350 K | 210.03 ± 0.41
351.26 K | 210.42 ± 0.41
352.61 K | 210.86 ± 0.41
353.95 K | 211.39 ± 0.41
355.28 K | 211.75 ± 0.41
356.6 K | 211.91 ± 0.41
357.9 K | 212.69 ± 0.41
359.2 K | 212.83 ± 0.41
360 K | 213 ± 0.41
360.47 K | 213.07 ± 0.41
361.74 K | 213.3 ± 0.41
362.99 K | 214.05 ± 0.41
363.57 K | 213.92 ± 0.41
364.8 K | 214.49 ± 0.41
366.02 K | 214.53 ± 0.41
367.22 K | 214.65 ± 0.41
368.41 K | 215.35 ± 0.42
369.58 K | 215.99 ± 0.42
370 K | 215.8 ± 0.42
370.75 K | 216.01 ± 0.42
371.9 K | 216.31 ± 0.42
